Patent publication US20110152267A1, “Compositions and Methods for Treating Hyperproliferative Disorders” (Texas Tech University System, priority 2009, published 2011)

What was measured:
[1] = tested on: CRL-2076 normal human fibroblast cell line; assay: DIMSCAN cytotoxicity, fenretinide + L-threo-sphinganines 3:1 (Example B1); type: cell-based; conditions: CRL-2076, 20% O2, 96 h
Protocol: (§1) Cytotoxicity Assay—Once again, cytotoxicity is determined using the DIMSCAN assay system (R. Proffitt et al., Cytometry 24, 204-213 (1996); T. Frgala et al., Mol Cancer Ther. 6:886-97, 2007). The system employs digital imaging microscopy to quantify viable cells, which selectively accumulate fluorescein diacetate to become brightly fluorescent. The system is capable of measuring cytotoxicity over a 4-5 log dynamic range by quenching the residual fluorescence of dead and dying cells with eosin Y and quantifying the total fluorescence of viable cells using digital thresholding. Measured fluorescence is directly proportionate to the number of viable cells. A comparison of the total fluorescence of a drug-treated cell population to the fluorescence of a similar number of untreated cells yields a survival fraction. In brief, 2000 to 10,000 cells/well (depending on size and growth rates) are replicate plated into 60 wells of a 96-well tissue culture plate in 0.1 mL of whole medium and allowed to attach overnight. Drug(s) are then added in 0.05 mL of whole medium to the final concentrations indicated. Drugs (fenretinide, and various chain length L-threo-sphinganines) were tested both as single agents and in a 3:1 ratio of fenretinide:sphinganine. C18-L-threo-sphinganine, or “safingol,” was also tested and results shown for reference. There are 12 wells treated per drug concentration. Twelve wells receive drug vehicle-only to the appropriate final concentration and serve as controls for the plate. Cells are incubated for 96 hours at 37° C. in ambient air with 5% CO2. Fluorescein diacetate is then added to each well in 0.05 mL media to a final concentration of 8 microgram/mL. Cells are incubated for a further 15 minutes at 37° C. and 0.03 mL of 0.5% eosin Y is added to each well. Total fluorescence of viable cells is then measured by digital imaging microscopy. Results were graphed as the ratio of the fluoresecence of drug-treated wells to non-drug treated control wells (i.e., Survival Fraction). All tests were performed at least twice. Representative results are shown.
(§2) The Combination Index (CI) is a term to describe mathematical modeling of the pharmacologic effects on cytotoxicity (cell death) of two drugs in combination based. Cytotoxic “synergy” is defined as a cell death affect which is greater than would be expected from a simple product of the single agent cytotoxicities alone (i.e. an “additive” effect). By Chou-Talalay analysis, a CI<0.9 on a Fraction Affected (“Fa”, i.e. fraction of cells killed) indicates synergy, with smaller numbers indicating greater synergy; a CI of 0.9-1.1 signifies an additive or near-additive effect; and a CI>1.1 means the drug combination is antagonistic.
(§3) Fenretinide and L-threo-sphinganines tested in normal human fibroblast (normal skin cell) cell lines, CRL-2091 and CRL-2076.

[2] = tested on: CRL-2091 normal human fibroblast cell line; assay: as above; type: cell-based; conditions: CRL-2091, 20% O2, 96 h
Protocol: as §1, §2, §3

[3] = tested on: LNCaP prostate adenocarcinoma cell line; assay: DIMSCAN cytotoxicity, fenretinide + L-threo-sphinganines 3:1 (Example B16); type: cell-based, human; conditions: LNCaP.FGC
Protocol: as §1, §2
Fenretinide and L-threo-sphinganines tested in human prostate adenocarcinoma (prostate cancer) cell line, LNCaP.

[4] = tested on: COG-LL-317 acute lymphoblastic leukemia cell line; assay: DIMSCAN cytotoxicity, fenretinide + L-threo-sphinganines 3:1 (Example B20); type: cell-based, human
Protocol: as §1, §2
(§4) Fenretinide and L-threo-sphinganines tested in human acute lymphoblastic leukemia (pediatric ALL, a blood cancer) cell lines, COG-LL-317 and MOLT-4.

[5] = tested on: MOLT-4 acute lymphoblastic leukemia cell line; assay: as above; type: cell-based, human
Protocol: as §1, §2, §4

[6] = tested on: CHLA-90 pediatric neuroblastoma cell line; assay: DIMSCAN cytotoxicity, fenretinide + L-threo-sphinganines 3:1 (Example B21); type: cell-based, human
Protocol: as §1, §2
Fenretinide and L-threo-sphinganines tested in human pediatric neuroblastoma (a nerve-related, solid tumor cancer) cell line, CHLA-90.

[7] = 4-HPR 1.5 μM + L-threo-sphinganine 0.5 μM
[8] = 4-HPR 3 μM + L-threo-sphinganine 1 μM
[9] = 4-HPR 6 μM + L-threo-sphinganine 2 μM
[10] = 4-HPR 9 μM + L-threo-sphinganine 3 μM
[11] = 4-HPR 12 μM + L-threo-sphinganine 4 μM

CCCCCCCCC[C@H](O)[C@@H](N)CO [C12]
CI (Combination Index) [1, 7]: 1
Fa (fraction affected) [1, 7]: 0.17
CI (Combination Index) [1, 8]: >1
Fa (fraction affected) [1, 8]: 0.30
CI (Combination Index) [1, 9]: >1
Fa (fraction affected) [1, 9]: 0.29
CI (Combination Index) [1, 10]: >1
Fa (fraction affected) [1, 10]: 0.30
CI (Combination Index) [2, 7]: >1
Fa (fraction affected) [2, 7]: 0.27
CI (Combination Index) [2, 8]: 0.76
Fa (fraction affected) [2, 8]: 0.44
CI (Combination Index) [2, 9]: >1
Fa (fraction affected) [2, 9]: 0.42
CI (Combination Index) [2, 10]: >1
Fa (fraction affected) [2, 10]: 0.54
CI [3, 7]: 0.5
Fa [3, 7]: 0.870
CI [3, 8]: 0.3
Fa [3, 8]: 0.982
CI [3, 9]: 0.4
Fa [3, 9]: 0.996
CI [3, 10]: 0.4
Fa [3, 10]: 0.999

CCCCCCCCCCC[C@H](O)[C@@H](N)CO [C14]
CI (Combination Index) [1, 7]: >1
Fa (fraction affected) [1, 7]: 0.10
CI (Combination Index) [1, 8]: >1
Fa (fraction affected) [1, 8]: 0.10
CI (Combination Index) [1, 9]: >1
Fa (fraction affected) [1, 9]: 0.12
CI (Combination Index) [1, 10]: >1
Fa (fraction affected) [1, 10]: 0.08
CI (Combination Index) [2, 7]: >1
Fa (fraction affected) [2, 7]: 0.32
CI (Combination Index) [2, 8]: >1
Fa (fraction affected) [2, 8]: 0.40
CI (Combination Index) [2, 9]: >1
Fa (fraction affected) [2, 9]: 0.21
CI (Combination Index) [2, 10]: >1
Fa (fraction affected) [2, 10]: 0.69

CCCCCCCCCCCC[C@H](O)[C@@H](N)CO [C15]
CI (Combination Index) [1, 7]: 1
Fa (fraction affected) [1, 7]: 0.08
CI (Combination Index) [1, 8]: >1
Fa (fraction affected) [1, 8]: 0.09
CI (Combination Index) [1, 9]: >1
Fa (fraction affected) [1, 9]: 0.06
CI (Combination Index) [1, 10]: >1
Fa (fraction affected) [1, 10]: 0.07
CI (Combination Index) [2, 7]: >1
Fa (fraction affected) [2, 7]: 0.26
CI (Combination Index) [2, 8]: >1
Fa (fraction affected) [2, 8]: 0.39
CI (Combination Index) [2, 9]: >1
Fa (fraction affected) [2, 9]: 0.29
CI (Combination Index) [2, 10]: >1
Fa (fraction affected) [2, 10]: 0.66

CCCCCCCCCCCCCC[C@H](O)[C@@H](N)CO [C17, (2S,3S)-2-amino-1,3-heptadecanediol]
CI (Combination Index) [1, 7]: >1
Fa (fraction affected) [1, 7]: 0.05
CI (Combination Index) [1, 8]: >1
Fa (fraction affected) [1, 8]: 0.04
CI (Combination Index) [1, 9]: >1
Fa (fraction affected) [1, 9]: 0.09
CI (Combination Index) [1, 10]: >1
Fa (fraction affected) [1, 10]: 0.15
CI (Combination Index) [2, 7]: >1
Fa (fraction affected) [2, 7]: 0.13
CI (Combination Index) [2, 8]: >1
Fa (fraction affected) [2, 8]: 0.25
CI (Combination Index) [2, 9]: >1
Fa (fraction affected) [2, 9]: 0.13
CI (Combination Index) [2, 10]: >1
Fa (fraction affected) [2, 10]: 0.62
CI [3, 7]: 0.3
Fa [3, 7]: 0.887
CI [3, 8]: 0.3
Fa [3, 8]: 0.967
CI [3, 9]: 0.2
Fa [3, 9]: 0.991
CI [3, 10]: 0.1
Fa [3, 10]: 0.999
CI [4, 8]: 0.8
Fa [4, 8]: 0.993
CI [4, 9]: 1.3
Fa [4, 9]: 0.9993
CI [4, 10]: 0.5
Fa [4, 10]: 0.9999
Fa [4, 11]: 1
CI [5, 8]: 1.0
Fa [5, 8]: 0.807
CI [5, 9]: 0.7
Fa [5, 9]: 0.998
CI [5, 10]: 0.8
Fa [5, 10]: 0.999
Fa [5, 11]: 1
CI [6, 8]: 0.4
Fa [6, 8]: 0.994
CI [6, 9]: 0.4
Fa [6, 9]: 0.999
CI [6, 10]: 0.6
Fa [6, 10]: 0.9997
CI [6, 11]: 0.3
Fa [6, 11]: 1

CCCCCCCCCCCCCCC[C@H](O)[C@@H](N)CO [C18, (2S,3S)-2-amino-1,3-octadecanediol, reference compound]
CI (Combination Index) [1, 7]: >1
Fa (fraction affected) [1, 7]: 0.20
CI (Combination Index) [1, 8]: 1
Fa (fraction affected) [1, 8]: 0.11
CI (Combination Index) [1, 9]: >1
Fa (fraction affected) [1, 9]: 0.35
CI (Combination Index) [1, 10]: >1
Fa (fraction affected) [1, 10]: 0.94
CI (Combination Index) [2, 7]: >1
Fa (fraction affected) [2, 7]: 0.16
CI (Combination Index) [2, 8]: >1
Fa (fraction affected) [2, 8]: 0.29
CI (Combination Index) [2, 9]: >1
Fa (fraction affected) [2, 9]: 0.29
CI (Combination Index) [2, 10]: 0.33
Fa (fraction affected) [2, 10]: 0.73
CI [3, 7]: 0.9
Fa [3, 7]: 0.752
CI [3, 8]: 0.3
Fa [3, 8]: 0.971
CI [3, 9]: 0.1
Fa [3, 9]: 0.998
CI [3, 10]: 0.1
Fa [3, 10]: 0.999
CI [4, 8]: 0.8
Fa [4, 8]: 0.998
CI [4, 9]: 0.6
Fa [4, 9]: 0.9994
CI [4, 10]: 0.8
Fa [4, 10]: 0.9996
Fa [4, 11]: 1
CI [5, 8]: 0.9
Fa [5, 8]: 0.829
CI [5, 9]: 0.7
Fa [5, 9]: 0.998
CI [5, 10]: 0.8
Fa [5, 10]: 0.999
Fa [5, 11]: 1
CI [6, 8]: 0.5
Fa [6, 8]: 0.996
CI [6, 9]: 0.3
Fa [6, 9]: 0.9993
CI [6, 10]: 0.4
Fa [6, 10]: 0.9999
Fa [6, 11]: 1

CCCCCCCCCCCCCCCC[C@H](O)[C@@H](N)CO [C19, (2S,3S)-2-amino-1,3-nonadecanediol]
CI [3, 7]: 1.0
Fa [3, 7]: 0.697
CI [3, 8]: 0.5
Fa [3, 8]: 0.980
CI [3, 9]: 0.5
Fa [3, 9]: 0.999
CI [3, 10]: 0.2
Fa [3, 10]: 1.000
CI [4, 8]: 0.8
Fa [4, 8]: 0.9980
CI [4, 9]: 0.4
Fa [4, 9]: 0.9999
Fa [4, 10]: 1.0000
Fa [4, 11]: 1.0000
CI [5, 8]: 1.0
Fa [5, 8]: 0.797
CI [5, 9]: 0.8
Fa [5, 9]: 0.996
CI [5, 10]: 0.8
Fa [5, 10]: 0.999
Fa [5, 11]: 1
CI [6, 8]: 0.4
Fa [6, 8]: 0.9960
CI [6, 9]: 0.1
Fa [6, 9]: 0.9993
CI [6, 10]: 0.1
Fa [6, 10]: 1
Fa [6, 11]: 1.0000

CCCCCCCCCCCCCCCCC[C@H](O)[C@@H](N)CO [C20, (2S,3S)-2-amino-1,3-icosanediol]
CI [3, 7]: 0.7
Fa [3, 7]: 0.812
CI [3, 8]: 0.4
Fa [3, 8]: 0.987
CI [3, 9]: 0.7
Fa [3, 9]: 0.993
CI [3, 10]: 0.8
Fa [3, 10]: 0.999
CI [4, 8]: 0.2
Fa [4, 8]: 0.9999
CI [4, 9]: 0.3
Fa [4, 9]: 1
Fa [4, 10]: 1
Fa [4, 11]: 1
CI [5, 8]: 0.9
Fa [5, 8]: 0.878
CI [5, 9]: 0.8
Fa [5, 9]: 0.996
CI [5, 10]: 0.8
Fa [5, 10]: 0.999
Fa [5, 11]: 1
CI [6, 8]: 0.5
Fa [6, 8]: 0.996
CI [6, 9]: 0.7
Fa [6, 9]: 0.999
CI [6, 10]: 1.1
Fa [6, 10]: 0.999
CI [6, 11]: 1.5
Fa [6, 11]: 0.9999
